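Growth conditions: 96-well plates. Treatment: test compound, 48 hours, 5 concentrations. Analysis: linear interpolation between bracketing concentrations; unreached endpoints set to highest concentration. TGI: total growth inhibition.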
Columns and labels:
Experiment in all cases: NCI tumour cell line growth inhibition, 48 h
[1] = system: MDA-N
[2] = system: NCI-H460 lung
[3] = system: SK-MEL-5 melanoma
[4] = system: EKVX NSCLC
[5] = system: ACHN renal
[6] = system: OVCAR-3 ovarian
[7] = system: K-562 leukemia
[8] = system: SW-620 colon
[9] = system: SF-295 CNS
[10] = system: BT-549 breast
[11] = system: MCF7 breast
[12] = system: PC-3 prostate
[13] = system: SN12C renal
[14] = system: TK-10 renal
[15] = system: HOP-92 NSCLC
[16] = system: DU-145 prostate
[17] = system: OVCAR-8 ovarian
[18] = system: U251 CNS
[19] = system: HCC-2998 colon
[20] = system: LXFL 529 NSCLC

Compound | TGI [1] [µM] | TGI [2] [µM] | TGI [3] [µM] | TGI [4] [µM] | TGI [5] [µM] | TGI [6] [µM] | TGI [7] [µM] | TGI [8] [µM] | TGI [9] [µM] | TGI [10] [µM] | TGI [11] [µM] | TGI [12] [µM] | TGI [13] [µM] | TGI [14] [µM] | TGI [15] [µM] | TGI [16] [µM] | TGI [17] [µM] | TGI [18] [µM] | TGI [19] [µM] | TGI [20] [µM]
Cc1ccc(-c2c(-c3ccccc3)[nH]c(C)c2C(=O)ONC(=O)c2ccccc2)cc1 | 6.12 | 5.21 | 18.3 | > 50.3 | 4.15 | 17.4 | 6.72 | 41.8 | 4.17 | 14.1 | 17.3 | 18.7 | 8.36 | 18.2 | 4.09 | 3.82 | 18.5 | 4.07 | 28.9 | –
COc1cc(/C=C2\C[C@H]3[C@@H]4CCC5=CC(=O)CC[C@]5(C)[C@H]4CC[C@]3(C)C2=O)cc(OC)c1OC | > 63.6 | > 100 | 15.9 | > 100 | > 100 | > 49 | > 100 | > 100 | > 100 | > 95.4 | > 100 | > 43.2 | > 100 | > 100 | > 100 | > 100 | > 100 | > 100 | > 100 | –
CCC(=O)N/S(=N/S(=O)(=O)c1ccccc1)C(Cl)(Cl)Cl (stereo not given) | > 100 | > 100 | > 100 | > 100 | > 100 | > 100 | > 100 | > 100 | > 100 | > 100 | > 100 | > 100 | > 100 | > 100 | > 100 | > 100 | > 100 | > 100 | > 100 | –
C[C@@H](C[C@H]1OC(C)(C)O[C@@H]1C(C)(C)O)[C@H]1CC=C2[C@]3(C)[C@H](O)C[C@H]4C(C)(C)[C@H](O)CC[C@]4(C)[C@H]3CC[C@]21C | 16.8 | 14.2 | 18.3 | 21.9 | 15.8 | 15.4 | 13.9 | 19.4 | 18.2 | 22.4 | 12.8 | 14.6 | 6.51 | 17.8 | 13.6 | 28.7 | 27.1 | 15 | 15.8 | –
CC1(C)OC(=S)N(c2ccccc2)C12C=Cc1cc3ccccc3nc1S2 (stereo not given) | – | > 100 | > 100 | > 100 | > 100 | > 100 | > 100 | > 100 | – | – | – | – | > 100 | > 100 | > 100 | – | > 100 | > 100 | > 100 | > 100
COC(=O)c1c(CC(Cc2ccc3c(c2)CCCC3)C(=O)O)ccc2c1CCCC2 (stereo not given) | > 100 | 47.9 | > 100 | 68.6 | > 100 | 34.3 | > 100 | > 100 | > 100 | > 100 | 84.1 | > 100 | > 100 | > 100 | 50.9 | > 100 | > 100 | > 100 | 70.2 | –
O=C1NC(Nc2ccccc2)=N/C1=C\c1c(Cl)cccc1Cl | 60.9 | > 100 | 37.6 | 47.3 | > 100 | > 100 | > 100 | > 100 | > 100 | > 100 | 56 | 39.6 | 46.6 | 47.2 | 39.9 | 76.3 | 65.1 | 37.6 | 58.5 | –
CC(=O)O[C@H]1CC[C@@]2(C)C(=CC[C@@H]3[C@@H]2CC[C@]2(C)c4c(n[nH]c4C)C[C@@H]32)C1 | 46.6 | 32.4 | 29.5 | 34.7 | 43.5 | 26.2 | > 100 | > 100 | 37.2 | 32.1 | 24.2 | 58.2 | 45.5 | 34.2 | 39.8 | 27.2 | 92.9 | 31.3 | 34.1 | –
COc1ccc2c(O)c(S(=O)(=O)c3ccc(C)cc3)c(=O)oc2c1OC | > 100 | > 100 | > 100 | > 100 | > 100 | > 100 | > 100 | > 100 | > 100 | > 100 | > 100 | > 100 | > 100 | > 100 | > 100 | > 100 | > 100 | > 100 | > 100 | –
COC(=O)C(C(=O)C(=O)Nc1ccc(C)cc1C)c1csc(-n2nc(-c3ccccc3)cc2-c2ccccc2)n1 (stereo not given) | – | > 100 | – | > 100 | > 100 | > 100 | > 100 | > 100 | – | – | – | – | > 100 | > 100 | > 100 | – | > 100 | > 100 | > 100 | > 100
CCCCc1ccc(-n2sc3ncc(-c4ccccc4)cc3c2=O)cc1 | > 100 | > 100 | > 100 | > 100 | > 100 | > 100 | > 100 | > 100 | > 100 | > 100 | > 100 | > 100 | > 100 | > 100 | > 100 | > 100 | > 100 | > 100 | > 100 | –
O=C(Cn1cc(Br)c(=O)[nH]c1=O)c1ccc(-c2ccccc2)cc1 | > 100 | > 48 | > 29.9 | > 100 | > 100 | > 100 | > 17.3 | > 100 | > 100 | > 23.8 | > 100 | > 45.9 | > 100 | > 100 | 82.5 | > 30.7 | 76.5 | 62.5 | > 28.7 | –
Nc1[nH]c(=O)nc2snnc12 | > 100 | > 100 | > 100 | > 100 | > 100 | > 100 | > 39.7 | > 100 | > 100 | > 100 | > 100 | > 100 | > 100 | > 83.9 | > 100 | > 100 | > 100 | > 100 | > 100 | –
CC(=O)NC1(NC(C)=O)C2CC(C1Cc1ccccc1)C(C)(C)C2C (stereo not given) | > 100 | > 100 | > 100 | > 100 | > 100 | > 100 | > 100 | > 100 | > 100 | > 100 | > 100 | > 100 | > 100 | > 100 | > 100 | > 100 | > 100 | > 100 | > 100 | –
CCC1=CCN(c2cc(C)ccn2)OC1c1ccccc1 (stereo not given) | – | > 100 | – | > 100 | > 100 | > 100 | > 100 | > 100 | > 100 | – | – | – | > 100 | – | – | – | > 100 | 46.2 | 81.7 | > 100
COc1ccc2oc(S(=O)(=O)N3CC(CCl)c4ccc(N)cc43)cc2c1 (stereo not given) | > 100 | 10.6 | 4.95 | > 100 | > 94.6 | > 100 | > 60.1 | > 100 | > 100 | > 55.8 | > 58.6 | > 100 | > 100 | > 100 | > 64.7 | 0.515 | > 28.3 | > 100 | 3.05 | –
OC1=CN=COc2ccccc21 | – | > 100 | – | > 100 | > 100 | > 100 | > 100 | > 100 | > 100 | – | – | – | > 100 | > 100 | > 100 | – | > 100 | > 100 | > 100 | > 100
O=[N+]([O-])c1ccc(C2ON=C(c3ccccc3)N2C23CC4CC(CC(C4)C2)C3)cc1 (stereo not given) | > 10 | > 10 | > 10 | > 10 | > 10 | > 10 | > 10 | > 10 | > 10 | > 10 | > 10 | > 10 | > 10 | > 10 | > 10 | > 10 | > 10 | > 10 | > 10 | –
O=c1cc(-c2ccccc2)[nH]c2cc(F)cc(F)c12 | – | > 100 | > 100 | – | > 100 | – | > 100 | > 100 | > 100 | – | – | – | > 100 | > 100 | > 100 | – | > 100 | > 100 | – | > 100
N#Cc1c2ccc([N+](=O)[O-])cc2c(=O)n2c1[nH]c1ccc(C(F)(F)F)cc12 | > 100 | > 100 | > 100 | > 100 | > 100 | 83.4 | 45.7 | > 100 | 66.1 | > 100 | > 100 | > 100 | > 100 | > 100 | 51.9 | > 100 | > 100 | > 100 | > 100 | –

From PubChem BioAssay (NCI)
